Measured values published in ChEMBL document CHEMBL1141943, “Synthesis and antitubercular activity of 2-hydroxy-aminoalkyl derivatives of diaryloxy methano phenanthrenes” (2005).
Values after ≈ are worked out from the molar mass of the structure shown.

Key:
[1] = test system: Mycobacterium tuberculosis; assay: Antitubercular activity against Mycobacterium tuberculosis H37Rv by agar microdilution technique; assay type: functional
[2] = test system: Mycobacterium tuberculosis; assay: Antitubercular activity against Mycobacterium tuberculosis H37Rv by standard BACTEC radiometric growth assay; assay type: functional

SMILES | MIC [1] [µg/mL] | MIC [2] [µg/mL]
COc1ccc(C(c2ccc(OCC(O)CN3CCN(Cc4ccccc4)CC3)cc2)c2cc3ccccc3c3ccccc23)cc1 (stereo unspecified) | 25 (≈ 40.1 µM) | –
CCCCNCC(O)COc1ccc(C(c2ccc(OC)cc2)c2cc3ccccc3c3ccccc23)cc1 (stereo unspecified) | 6.25 (≈ 12 µM) | 6.25 (≈ 12 µM)
OC(CNC1CCCCC1)COc1ccc(C(c2ccc(OCC(O)CNC3CCCCC3)cc2)c2cc3ccccc3c3ccccc23)cc1 (stereo unspecified) | 6.25 (≈ 9.1 µM) | 12.5 (≈ 18.2 µM)
CCN(CC)CC(O)COc1ccc(C(c2ccc(OC)cc2)c2cc3ccccc3c3ccccc23)cc1 (stereo unspecified) | 6.25 (≈ 12 µM) | 6.25 (≈ 12 µM)
COc1ccc(C(c2ccc(OCC(O)CNC3CC3)cc2)c2cc3ccccc3c3ccccc23)cc1 (stereo unspecified) | 25 (≈ 49.6 µM) | 25 (≈ 49.6 µM)
COc1ccc(C(c2ccc(OCC3CO3)cc2)c2cc3ccccc3c3ccccc23)cc1 (stereo unspecified) | 25 (≈ 56 µM) | –
COc1ccc(C(c2ccc(OCC(O)CN3CCCCC3)cc2)c2cc3ccccc3c3ccccc23)cc1 (stereo unspecified) | 12.5 (≈ 23.5 µM) | 12.5 (≈ 23.5 µM)
COc1ccc(C(c2ccc(OCC(O)CN3CCCC3)cc2)c2cc3ccccc3c3ccccc23)cc1 (stereo unspecified) | 12.5 (≈ 24.1 µM) | 12.5 (≈ 24.1 µM)
CN1CCN(CC(O)COc2ccc(C(c3ccc(OCC(O)CN4CCN(C)CC4)cc3)c3cc4ccccc4c4ccccc34)cc2)CC1 (stereo unspecified) | 12.5 (≈ 18.1 µM) | 12.5 (≈ 18.1 µM)
COc1ccc(C(c2ccc(OCC(O)CN3CCN(C)CC3)cc2)c2cc3ccccc3c3ccccc23)cc1 (stereo unspecified) | 12.5 (≈ 22.9 µM) | 12.5 (≈ 22.9 µM)
COc1ccc(C(c2ccc(OCC(O)CN3CCOCC3)cc2)c2cc3ccccc3c3ccccc23)cc1 (stereo unspecified) | 25 (≈ 46.8 µM) | –
COc1ccc(C(c2ccc(OCC(O)CNC3CCCCC3)cc2)c2cc3ccccc3c3ccccc23)cc1 (stereo unspecified) | 12.5 (≈ 22.9 µM) | 6.25 (≈ 11.5 µM)
OC(COc1ccc(C(c2ccc(OCC(O)CN3CCCCC3)cc2)c2cc3ccccc3c3ccccc23)cc1)CN1CCCCC1 (stereo unspecified) | 6.25 (≈ 9.49 µM) | 12.5 (≈ 19 µM)
COc1ccc(C(c2ccc(OCC(O)CNC3CCCCCC3)cc2)c2cc3ccccc3c3ccccc23)cc1 (stereo unspecified) | 3.12 (≈ 5.57 µM) | 3.12 (≈ 5.57 µM)
OC(COc1ccc(C(c2ccc(OCC(O)CN3CCCC3)cc2)c2cc3ccccc3c3ccccc23)cc1)CN1CCCC1 (stereo unspecified) | 12.5 (≈ 19.8 µM) | 12.5 (≈ 19.8 µM)
NNC(=O)c1ccncc1 [ISONIAZID] | 0.05 (≈ 0.365 µM) | 0.025 (≈ 0.182 µM)
CO[C@H]1/C=C/O[C@@]2(C)Oc3c(C)c(O)c4c(O)c(c(/C=N/N5CCN(C)CC5)c(O)c4c3C2=O)NC(=O)/C(C)=C\C=C\[C@H](C)[C@H](O)[C@@H](C)[C@@H](O)[C@@H](C)[C@H](OC(C)=O)[C@@H]1C [RIFAMPIN] | 0.1 (≈ 0.122 µM) | 0.2 (≈ 0.243 µM)
